Measurements as given in PubChem BioAssay (NCI).
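Dose response: 5 concentrations. Exposure: 48 h. Format: 96-well plates. Endpoint: linear interpolation; highest concentration if not reached. At the GI50, growth is halved. The concentration for full growth arrest is given as TGI.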

Key:
Test in all cases: growth of human tumour cells (NCI), 48 h
OVCAR-4 ovarian = tested on: OVCAR-4 ovarian
MDA-MB-231 breast = tested on: MDA-MB-231 breast
PC-3 prostate = tested on: PC-3 prostate
RXF 393 renal = tested on: RXF 393 renal
KM12 colon = tested on: KM12 colon
SN12C renal = tested on: SN12C renal
UO-31 renal = tested on: UO-31 renal
CCRF-CEM leukemia = tested on: CCRF-CEM leukemia

Row | SMILES | TGI (OVCAR-4 ovarian) [µM] | TGI (MDA-MB-231 breast) [µM] | TGI (PC-3 prostate) [µM] | TGI (RXF 393 renal) [µM] | TGI (KM12 colon) [µM] | TGI (SN12C renal) [µM] | TGI (UO-31 renal) [µM] | GI50 (OVCAR-4 ovarian) [µM] | GI50 (MDA-MB-231 breast) [µM] | GI50 (PC-3 prostate) [µM] | GI50 (KM12 colon) [µM] | GI50 (SN12C renal) [µM] | GI50 (UO-31 renal) [µM] | GI50 (RXF 393 renal) [µM] | GI50 (CCRF-CEM leukemia) [µM] | TGI (CCRF-CEM leukemia) [µM]
1 | c1cc2c(cc1C(N1CCNCC1)N1CCNCC1)OCO2 | > 100 | > 100 | > 100 | > 100 | > 100 | > 100 | > 100 | – | – | – | – | – | – | – | – | –
2 | C[C@@H]1O[C@@H](O[C@@H]2[C@@H](O)[C@H](OCCc3ccc(O)c(O)c3)O[C@H](COC(=O)/C=C/c3ccc(O)c(O)c3)[C@H]2O)[C@H](O)[C@H](O)[C@H]1O | > 100 | > 100 | > 100 | – | > 100 | > 100 | > 100 | > 100 | > 100 | 0.524 | > 100 | 68.7 | > 100 | – | – | –
3 | Fc1ccc(Oc2nccc(-c3c(-c4ccc(F)cc4)ncn3C3CCNCC3)n2)cc1 | > 25 | > 9.34 | > 25 | > 25 | > 25 | > 25 | > 25 | > 25 | – | > 25 | > 25 | > 19.6 | 10.9 | > 25 | – | –
4 | Nc1nc(Nc2ccc3c(c2)CC[C@@H](N2CCCC2)CC3)nn1-c1cc2c(nn1)-c1ccccc1CCC2 | 3.31 | 3.55 | – | – | 3.71 | – | 2.19 | 1.44 | 1.82 | – | 1.83 | – | 0.936 | – | 0.478 | 2.53
5 | N#CC1=C(N)N=C(N2CCCCC2)C(C#N)C12Nc1ccccc1S2 (centres undefined) | > 100 | 58.7 | > 100 | 65.1 | > 100 | > 100 | > 100 | 37.9 | 17.1 | 50.5 | 25.6 | 24.8 | 40.8 | 27 | – | –
6 | O=C(Nc1ccc(-n2cc(-c3ccncc3)c(-c3ccc(Cl)c(O)c3)n2)cc1)Nc1cc(C(F)(F)F)cc(C(F)(F)F)c1 | 3.98 | 4.93 | 6.1 | 3.45 | 3.15 | 7.57 | 3.93 | 0.404 | 2.11 | 2.05 | 1.6 | 2.03 | 1.55 | 1.45 | – | –
7 | NCCCC(=O)Nc1ccncc1 | > 100 | > 100 | > 100 | – | > 100 | > 100 | > 100 | > 100 | > 100 | > 100 | > 100 | > 100 | > 100 | – | > 100 | > 100
